From patent US5770378A, “Tricyclic retinoids, methods for their production and use” (Ligand Pharmaceuticals, Inc., priority 1995, dated 1998)

Experiments:
RAR and RXR receptors = test: Co-transfection assay, RAR and RXR receptors overall; format: cell-based; details: for potency profile versus 9-cis retinoic acid: pan-agonist compounds; for receptor subfamily selectivity: RAR versus RXR
Protocol: (§1) Utilizing the "cis-trans" or "co-transfection" assay described by Evans et al., Science, 240:889-95 (May 13, 1988), the disclosure of which is herein incorporated by reference, the retinoid compounds of the present invention were tested and found to have strong, specific activity as either selective RAR agonists, selective RXR agonists, or as pan-agonist activators of both RAR and RXR receptors. This assay is described in further detail in U.S. Pat. Nos. 4,981,784 and 5,071,773, the disclosures of which are incorporated herein by reference.
(§2) In the co-transfection assay, a cloned cDNA for an IR (e.g., human RARα, RARβ, RXRγ) under the control of a constitutive promoter (e.g., the SV 40 promoter) is introduced by transfection (a procedure to induce cells to take up foreign genes) into a background cell substantially devoid of endogenous IRs. This introduced gene directs the recipient cells to make the IR protein of interest. A second gene is also introduced (co-transfected) into the same cells in conjunction with the IR gene. This second gene, comprising the cDNA for a reporter protein, such as firefly luciferase (LUC), controlled by an appropriate hormone responsive promoter containing a hormone response element (HRE). This reporter plasmid functions as a reporter for the transcription-modulating activity of the target IR. Thus, the reporter acts as a surrogate for the products (mRNA then protein) normally expressed by a gene under control of the target receptor and its native hormone.
(§3) The co-transfection assay can detect small molecule agonists or antagonists of target IRs. Exposing the transfected cells to an agonist ligand compound increases reporter activity in the transfected cells. This activity can be conveniently measured, e.g., by increasing luciferase production, which reflects compound-dependent, IR-mediated increases in reporter transcription. […] . Increasing concentrations of a suspected antagonist will decrease the reporter signal (e.g., luciferase production). The co-transfection assay is therefore useful to detect both agonists and antagonists of specific IRs. Furthermore, it determines not only whether a compound interacts with a particular IR, but whether this interaction mimics (agonizes) or blocks (antagonizes) the effects of the native regulatory molecules on target gene expression, as well as the specificity and strength of this interaction.
To determine RAR and/or RXR agonist activity of the compounds of the present invention, the CV-1 cells were transiently transfected by calcium phosphate coprecipitation according to the procedure of Berger et al., 41 J.Steroid Biochem. Mol. Biol., 733 (1992) with the following receptor expressing plasmids: pRShRARα: Giguere et al., 330 Nature, 624 (1987); pRShRARβ and pRShRARγ, Ishikawa et al., 4 Mol. Endocrin., 837 (1990); pRShRXRα, Mangelsdorf et al., 345 Nature, 224 (1990); and pRSmRXRβ and pRSmRXRγ, Mangelsdorf et al., 6 Genes & Devel., 329 (1992), the disclosures of which are herein incorporated by reference. Each of these receptor expressing plasmids was co-transfected at a concentration of 5 ng/well, along with a basal reporter plasmid at 100 ng/well, the internal control plasmid pRS-β-Gal at 50 ng/well and filler DNA, pGEM at 45 ng/well.

RARs = test: Co-transfection assay, RARs overall; format: cell-based, human
Protocol: as §1, §2
as §3, with “interaction. […]” for “interaction.”

SMILES | potency profile versus 9-cis retinoic acid (RAR and RXR receptors) | RAR activity (RARs) | receptor subfamily selectivity (RAR and RXR receptors)
CC(/C=C/C=C1/CCOc2cc3c(cc21)C(C)(C)CCC3(C)C)=C\C(=O)O [Compound 144b] | superior potency profiles | extremely potent RAR active | –
CC(/C=C/C=C1\CCCc2cc3c(cc21)C(C)(C)CCC3(C)C)=C\C(=O)O [Compound 109b, (2E,4E)-3-Methyl-6-[(E)-3,4,5,6,7,8-hexahydro-5,5,8,8-tetramethyl-2H-anthracen-1-ylidene]hexa-2,4-dienoic acid] | – | extremely potent RAR active | RAR selective
CC(/C=C/CC1CCCc2cc3c(cc21)C(C)(C)CCC3(C)C)=C\C(=O)O (racemic) [Compound 124b, (2E,4E)-3-Methyl-6-(1,2,3,4,5,6,7,8-octahydro-5,5,8,8-tetramethylanthracen-1-yl)hexa-2,4-dienoic acid] | superior potency profiles | – | –
CC(/C=C/C=C1/CCCc2cc3c(cc21)C(C)(C)CCC3(C)C)=C\C(=O)O [Compound 101b, (2E,4E)-3-Methyl-6-[(Z)-3,4,5,6,7,8-hexahydro-5,5,8,8-tetramethyl-2H-anthracen-1-ylidene]hexa-2,4-dienoic acid] | superior potency profiles | extremely potent RAR active | –
CC(/C=C/C=C1\CCOc2cc3c(cc21)C(C)(C)CCC3(C)C)=C\C(=O)O [Compound 119b, (2E,4E)-3-Methyl-6-[(E)-2,3,6,7,8,9-hexahydro-6,6,9,9-tetramethyl-benzo[g]chromen-4-ylidene]hexa-2,4-dienoic acid] | – | extremely potent RAR active | RAR selective
